In one experiment the test system is stressed subjects. The experiment in a line: gastrointestinal motility in stressed subjects, oral administration. The class given is in vivo.
The test system of the next experiment is rats. The experiment in a line: visceral hyperalgesia in rats, oral administration. The format is in vivo.
For experiment [1], the system named is stressed and non-stressed mice. To be noted: cited from earlier work.

Molecules are shown by their SMILES.

Consider `COc1ccc(CN(C(=O)C(N)Cc2c(C)cc(C(N)=O)cc2C)C(C)c2nc(-c3ccccc3)c[nH]2)cc1C(=O)O` (stereo not shown) [active ingredient], for which the “gastrointestinal (GI) motility” value with stressed subjects was “efficacious in normalizing gastrointestinal (GI) motility”. For the same compound, in the experiment on rats, the anti-visceral hyperalgesic effects result is “providing anti-visceral hyperalgesic effects”.
As to `CN(C)C(=O)C(CCN1CCC(O)(c2ccc(Cl)cc2)CC1)(c1ccccc1)c1ccccc1` [loperamide], in experiment [1], the “dose range of the effect” value is reported as “narrow dose range”; the “gastrointestinal transit and fecal output” value is given as “completely prevented fecal output”.
